Assay results from patent publication US7947279B2, “Peptide having hydrolase activity” (The Trustees of Columbia University in the City of New York, priority 2005, dated 2011).
“Also recorded” adds a separate entry of the source.

How the values were obtained:
[1] = system: CA1-LTP in hippocampal slices; assay: CA1-LTP in hippocampal slices (theta-burst); format: cell-based, mouse
[2] = system: BST at the Schaffer collateral/CA1 connection of hippocampal slices; assay: Basal synaptic transmission (BST) in hippocampal slices; format: cell-based, mouse
mice (WT and APP/PS1) = assay: Contextual and cued fear conditioning; format: in vivo, mouse; settings: for freezing time in contextual learning: at 21 days
Method: Behavioral Studies: Fear conditioning was performed in a conditioning chamber as previously described (Bourtchuladze et al., 1994; Gong et al., 2004). For contextual and cued fear conditioning mice were placed in the conditioning chamber for 2 min before the onset of a discrete tone (CS) (a 30 sec sound at 2800 Hz and 85 dB). In the last 2 sec of the CS, mice were given a foot shock (US) of 0.50 mA for 2 sec through the bars of the floor. After the CS/US pairing, the mice were left in the conditioning chamber for another 30 sec and then placed back in their home cages. Freezing behavior, defined as the absence of all movement except for that necessitated by breathing, was scored using Freezeview software. To evaluate contextual fear learning, freezing was measured for 5 min in the chamber in which the mice were trained 24 hrs after training. To evaluate cued fear conditioning, following contextual testing, the mice were placed in a novel context (triangular cage with smooth flat floor and with vanilla odorant) for 2 min (pre-CS test), after which they were exposed to the CS for 3 min (CS test), and freezing was measured. To evaluate the contextual fear over time, mice were placed for 5 min in the chamber in which the mice were trained 7- 14- 21-days after training. Sensory perception of the shock was determined through threshold assessment. Each animal was placed individually into the conditioning chamber. […] Animal behavior was evaluated for the first visible response to the shock (flinch), the first extreme motor response (run/jump), and the first vocalized distress (scream). Threshold to flinching, jumping, and screaming was quantified for each animal by averaging of the shock intensity at which each animal manifested a behavioral response of that type to the foot shock. Visual, motor, and motivation skills were also tested with visible platform training by measuring the time and the speed to reach a visible platform placed within a pool filled with water (Gong et al., 2004). Both time to reach the platform and swimming speed were recorded and analyzed with a video tracking system (HVS-2020, HVS Image, UK). No difference was observed among different groups of mice in the experiments in which fear conditioning was tested both in the presence of LDN and TAT fusion proteins. To decide the time of administration of LDN, experiments were performed in which the inhibitor was injected intra-peritoneally at different intervals (4 hrs before, 1 hr before, 1 hr after and 4 hrs after) from the electric shock. During the training phase, no difference was found in the freezing of LDN- or vehicle-injected mice.

[3] = system: SY5Y neuroblastoma cells transfected with a degron CL1-GFP expression vector; assay: Proteasome reporter assay (GFP^u); format: cell-based, human; settings: substance alone
Method: Proteasome reporter assays. In this cell line, human neuroblastoma SH-SY5Y cells were permanently transfected with reporter construct consisting of green fluorescent protein (GFP) conjugated at its C-terminus to a short degron sequence (CL-1) (Gilon et al., 1998). […] The SY5Y-GFP^u cells were grown in 1×DMEM (Invitrogen) supplemented with 15% fetal bovine serum (JRH), 1× penicillin/streptomycin (Gibco). After indicated treatments, GFP^u concentrations were assayed by densitometric analysis of immunoblots of total protein extracts (10 ug/lane) using monoclonal GFP antibodies (Santa Cruz Biotechnology) and visualized with HRP-conjugated secondary antibodies and ECL (Pierce). Loading equalization was normalized by probing blots with anti-ERK antibodies (Santa Cruz Biotechnology).

phospho-CREB at Ser-133 = assay: Phospho-CREB (Ser-133) Western blot in hippocampal cultures; format: cell-based, rat; settings: LDN 10 μM
Method: Western Blotting: Protein levels were assessed using standard procedures. Protein extraction was performed using buffer with and without detergent. For the extraction of protein using detergent, hippocampal tissues and cultured hippocampal neurons (5 DIV) were homogenized in RIPA buffer (50 mM Tris-HCl pH 7.4, 1% Triton X-100, 1% sodium deoxycholate, 0.1% SDS, 150 mM sodium chloride, 10 mM sodium fluoride, 30 mM sodium pyrophosphate, 50 mM sodium orthovanadate) containing 1× complete protease inhibitor (Roche) and 1 mM phenylmethylsulfonyl fluoride (PMSF). For extraction of proteins without detergent, hippocampal extracts were homogenized with disposable dounce homogenizers in buffer A, containing 10 mM HEPES pH 7.3, 300 mM sucrose, protease 1× complete protease inhibitor (Roche) and PMSF. After centrifugation at 10,000×g supernatant proteins were resolved on a 8% or 4-20% gradient Tris-Glycine gel, transferred onto PVDF or nitrocellulose membrane and blocked in 5% skim milk in PBS-Tween 0.1% (PBS-T). Membranes were probed with primary antibodies, and after washing with PBS-T incubated with an appropriate HRP-conjugated secondary antibody. The following antibodies were used: mouse monoclonal anti-ubiquitin (Chemicon), rabbit polyclonal anti-pCREB (Upstate Biotech.), rabbit polyclonal anti-PKA-RIIα (Santa Cruz Biotech. Inc), mouse monoclonal anti-Uch-L1 (Novocastra), monoclonal mouse anti-HA (Santa Cruz Biotech. Inc), and anti-PKA IIα. Detection was performed using HRP-conjugated secondary antibodies (Pierce, Rockford, Ill.). To control loading and transfer, protein immunoreactivities were normalized against total extracellular signal-regulated protein kinases (ERK1/2) levels with a rabbit analyzed using a rabbit polyclonal anti-ERK1/2 antibody (Cell Signaling Technology, Inc). NIH IMAGE was used to analyze the scanned blots and quantify the intensity of the protein signals.
Preparation of Cell Cultures. Hippocampal cell cultures were prepared as previously described (Vitolo et al., 2002). In cell culture experiments fetuses at embryonic day 18 from timed pregnant Sprague-Dawley rats (Taconic Farms) were used. Fetuses were sacrificed and the hippocampi removed. Neurons were then dissociated, plated on 6 well-plates coated with poly-L-lysine and maintained in a defined serum-free medium containing minimum essential medium supplemented with N-2, glucose, albumin, pyruvic acid, antibiotics and antimycotics. […] 5 DIV cells were used for the experiments.

[4] = LDN 5 μM, 15 min, listed as LDN

CC(=O)O/N=C1\C(=O)N(Cc2cc(Cl)ccc2Cl)c2ccc(Cl)cc21 [LDN-57444, reference compound]
LTP ([1]; LDN 1 μM, 2-4 hr, listed as LDN): has no effect | LTP ([1]; LDN 2.7 μM, 2-4 hr, listed as LDN): reduces CA1-LTP | LTP in Aβ-treated slices ([1]; LDN 5 μM for 2 hrs, 200 nM Aβ, listed as LDN): does not further reduce potentiation; also recorded: did not further reduce LTP | LTP in APP/PS1 slices ([1]; LDN 5 μM for 2 hrs, listed as LDN): does not further reduce potentiation; also recorded: did not further reduce LTP | LTP ([1]; LDN 5 μM, 15 min): did not affect BST or LTP; also recorded: did not affect CA1-LTP | LTP [1, 4]: did not affect basal synaptic transmission (BST) or LTP; also recorded: did not affect CA1-LTP | LTP ([1]; LDN 5 μM, 2 hrs): blocked | LTP ([1]; LDN 5 μM, 2 hrs, listed as LDN): diminished LTP; also recorded: reduced | LTP ([1]; LDN 5 μM, 4 hrs): strongly reduced | LTP ([1]; LDN 5 μM, 4 hrs, listed as LDN): reduced both; also recorded: strongly reduced | LTP ([1]; LDN-57444, 2 hour exposure): approximately 70 % of vehicle treated slices | LTP ([1]; LDN-57444, 4 hour exposure): ~65 % of vehicle treated slices | baseline transmission in slices without tetanic stimulation ([1]; non-tetanized slices): did not affect baseline transmission | BST ([2]; LDN 2.7 μM and 1 μM, 2-4 hr, listed as LDN): normal BST; also recorded: did not affect CA1-BST | BST ([2]; LDN 5 μM, 15 min): did not affect BST or LTP; also recorded: did not affect CA1-BST | BST [2, 4]: did not affect basal synaptic transmission (BST) or LTP; also recorded: does not affect CA1-BST | BST ([2]; LDN 5 μM, 2 hrs): without affecting BST; also recorded: not affected | BST ([2]; LDN 5 μM, 2 hrs, listed as LDN): without affecting BST; also recorded: not affected | BST ([2]; LDN 5 μM, 4 hrs): strongly reduced | BST ([2]; LDN 5 μM, 4 hrs, listed as LDN): reduced both; also recorded: strongly reduced | BST ([2]; LDN-57444, 4 hour exposure): approximately 40 % of vehicle treated slices | cued fear conditioning (mice (WT and APP/PS1); LDN 0.4 mg/kg i.p.): did not show a difference | freezing time in contextual conditioning (mice (WT and APP/PS1); LDN 0.4 mg/kg i.p. 4 hrs after the electric shock, twenty-four hours later): 74 % of that of vehicle-treated mice | freezing time in contextual learning (mice (WT and APP/PS1); LDN 0.4 mg/kg i.p.): about 70 % of vehicle-treated mice | freezing time in contextual learning (mice (WT and APP/PS1); LDN 0.4 mg/kg i.p., listed as LDN): 70 % of vehicle-treated mice | contextual conditioning performance (mice (WT and APP/PS1); LDN 0.4 mg/kg i.p., context at 1, 7, 14 and 21 days after training): worsened contextual conditioning performance | contextual learning (mice (WT and APP/PS1); LDN injected at 4 and 1 hour before the shock or at 1 hour after the shock): failed to impair contextual learning | freezing during the training phase (mice (WT and APP/PS1); LDN- versus vehicle-injected mice): no difference | GFP^u levels [3]: much larger increase in GFP | phospho-CREB enhancement / beneficial effect of TAT-HA-Uch-L1 (phospho-CREB at Ser-133): blocked the beneficial effect of TAT-HA-Uch-L1; also recorded: did not allow the enhancement of phospho-CREB | phospho-CREB enhancement / beneficial effect of TAT-HA-Uch-L1 (phospho-CREB at Ser-133; listed as LDN): blocked the beneficial effect of TAT-HA-Uch-L1; also recorded: did not allow the enhancement of phospho-CREB
